Measurements: ChEMBL document CHEMBL4004874, “Synthesis and biological evaluation of C-3 aliphatic coumarins as vitamin K antagonists” (Bioorg Med Chem Lett, 2017)
pKi: −log10 of the molar value.

How the values were obtained:
Rattus norvegicus [1] = assay: Anticoagulant activity in Sprague-Dawley rat assessed as increase of prothombin time at 10 mg/kg, po after 24 hrs relative to control; type: functional
[2] = target: T1, Vitamin K epoxide reductase complex subunit 1 (Rattus norvegicus, UniProt Q6TEK4); assay: Inhibition of VKORC1 in rat liver microsomes in presence of 0.003 to 0.2 mM vitamin K
T1 sequence (Q6TEK4 whole entry): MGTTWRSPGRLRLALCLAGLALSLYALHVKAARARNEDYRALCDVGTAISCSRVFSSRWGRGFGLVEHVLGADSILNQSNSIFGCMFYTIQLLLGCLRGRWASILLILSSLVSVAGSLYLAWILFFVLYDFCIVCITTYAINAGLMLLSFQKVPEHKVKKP

Liver [3] = assay: Drug uptake in Sprague-Dawley rat liver assessed per gram of liver at 10 mg/kg, po by HPLC-UV analysis; type: ADME, organism-based; conditions: in vivo
Liver [4] = assay: Drug uptake in Sprague-Dawley rat liver assessed per gram of liver at 10 mg/kg, po after 24 hrs by HPLC-UV analysis; type: ADME, organism-based; conditions: in vivo
Liver [5] = assay: Drug uptake in Sprague-Dawley rat liver assessed per gram of liver at 10 mg/kg, po after 72 hrs by HPLC-UV analysis; type: ADME, organism-based; conditions: in vivo
Rattus norvegicus [6] = assay: Anticoagulant activity in Sprague-Dawley rat assessed as increase of prothombin time at 10 mg/kg, po after 72 hrs relative to control; type: functional
Liver [7] = assay: Drug uptake in Sprague-Dawley rat liver assessed per gram of liver at 10 mg/kg, po after 7 hrs by HPLC-UV analysis; type: ADME, organism-based; conditions: in vivo
Rattus norvegicus [8] = assay: Anticoagulant activity in Sprague-Dawley rat assessed as increase of prothombin time at 10 mg/kg, po after 7 hrs relative to control; type: functional

SMILES | fold change (FC) (Rattus norvegicus [1]) | pKi [2] | Drug uptake (Liver [4]) | further results
CC(C)CCCC(C)CCCC(C)CCCC(C)CCc1c(O)c2ccccc2oc1=O (stereo not given) | 1 | 7.30 | – | Drug uptake (Liver [3]; BLD = below limit of detection): Bld
CCCCCCCCCCCc1c(O)c2ccccc2oc1=O | – | 7.22 | – | –
CCCCCCCCCCCC(c1ccc(Cl)cc1Cl)c1c(O)c2ccccc2oc1=O (stereo not given) | 2 | 7.05 | 3.5 µg/g | Drug uptake (Liver [5]): 0.7 µg/g; fold change (FC) (Rattus norvegicus [6]): 1
C/C(=C\Cc1c(O)c2ccccc2oc1=O)CCCC(C)CCCC(C)CCCC(C)C (stereo not given) | 1 | 7.70 | – | Drug uptake (Liver [3]): 1.3 µg/g
CCCCCCCCc1c(O)c2ccccc2oc1=O | – | 6.59 | – | –
CCCCCCCCCCCC(c1ccc(F)cc1)c1c(O)c2ccccc2oc1=O (stereo not given) | 2 | 7.70 | 0.7 µg/g | –
CCCCCCCCCCCCc1c(O)c2ccccc2oc1=O | 1 | 7.30 | 0.7 µg/g | –
CCCCCCCCCCc1c(O)c2ccccc2oc1=O | – | 7.05 | – | –
CC(C)CCCC(C)CCCC(C)CCCC(C)CC(c1ccccc1)c1c(O)c2ccccc2oc1=O (stereo not given) | 1 | 6.70 | – | Drug uptake (Liver [3]; BLD = below limit of detection): Bld
CCCCCCc1c(O)c2ccccc2oc1=O | – | 5.41 | – | –
CCCCCCCCCCCC(c1ccc(OC)cc1)c1c(O)c2ccccc2oc1=O (stereo not given) | – | 7.00 | – | –
CCCCCCCCCCCC(c1ccccc1)c1c(O)c2ccccc2oc1=O (stereo not given) | 1 | 7.52 | 0.7 µg/g | –
CCC(c1ccccc1)c1c(O)c2ccccc2oc1=O (stereo not given) [PHENPROCOUMON] | 5.5 | 6.70 | 12.8 µg/g | Drug uptake (Liver [5]): 1.7 µg/g
CCCCCCCCCCCC(c1ccc(Cl)cc1)c1c(O)c2ccccc2oc1=O (stereo not given) | 4 | 7.70 | 3 µg/g | Drug uptake (Liver [7]): 13 µg; Drug uptake (Liver [5]): 1 µg/g; fold change (FC) (Rattus norvegicus [6]): 1; fold change (FC) (Rattus norvegicus [8]): 1
CCCCCCCCCCCC(c1ccc(C(C)(C)C)cc1)c1c(O)c2ccccc2oc1=O (stereo not given) | – | 4.66 | – | –
